Target: T1, aldose reductase (Bos taurus, UniProt P16116)
T1 construct: partially purified aldose reductase is isolated in known manner from bovine lenses; from tissue; host or cells: bovine lenses
Test: in vitro inhibition of partially purified aldose reductase isolated from bovine lenses (reduction of glucose to sorbitol, spectrophotometric)
Assay type: biochemical
Settings: in vitro test
Excerpt: Thus, in a standard procedure partially purified aldose reductase is isolated in known manner from bovine lenses. The percentage inhibition of this enzyme's ability in vitro to catalyse the reduction of aldoses to polyhydric alcohols, and particularly to reduce glucose to sorbitol, caused by a test compound can then be determined using standard spectrophotometric methods.

IC50: 13 nM
Compound: Cc1c(C)c(S(=O)(=O)C[N+](=O)[O-])c(C)c2c1OC(C)(C)CC2 [Example 2, 2,2,5,7,8-pentamethyl-6-(nitromethylsulphonyl)-chroman]
